These results are taken from ChEMBL document CHEMBL1146281, “Synthesis and evaluation of peptidic maleimides as transglutaminase inhibitors” (Bioorg Med Chem Lett, 2007).

Structures are written as SMILES.

For this test, the species on record is Cavia porcellus. The test can be described thus: Ratio of Kinactivation to KI of guinea pig recombinant liver TGase expressed in Escherichia coli.

Consider `O=C(N[C@@H](CCCN1C(=O)C=CC1=O)C(=O)OCc1ccccc1)OCc1ccccc1`, for which the Ratio stood at 6.26 mM⁻¹ min⁻¹. For `COC(=O)CNC(=O)[C@H](CCCN1C(=O)C=CC1=O)NC(=O)OCc1ccccc1`, the Ratio turned out to be 0.43 mM⁻¹ min⁻¹. For `O=C(N[C@@H](CCCCN1C(=O)C=CC1=O)C(=O)OCc1ccccc1)OCc1ccccc1`, the Ratio was 17.1 mM⁻¹ min⁻¹. As for `O=C(N[C@@H](CCN1C(=O)C=CC1=O)C(=O)OCc1ccccc1)OCc1ccccc1`, the Ratio is 0.67 mM⁻¹ min⁻¹. The result for `COC(=O)CNC(=O)[C@H](CCCCN1C(=O)C=CC1=O)NC(=O)OCc1ccccc1` reads 0.83 mM⁻¹ min⁻¹; that for `COC(=O)CNC(=O)[C@H](CCN1C(=O)C=CC1=O)NC(=O)OCc1ccccc1`, 0.28 mM⁻¹ min⁻¹.
